Data as given in ChEMBL document CHEMBL5390258, “Recent Progress and Prospects of Small Molecules for NLRP3 Inflammasome Inhibition” (J Med Chem, 2023).
Blank lines part the entries; values can stand above or below the compound they belong to.

Legend:
[1] = target: T1, NACHT, LRR and PYD domains-containing protein 3 (Homo sapiens, UniProt Q96P20); experiment: Inhibition of NLRP3 in LPS induced human THP-1 cells assessed as reduction in IL-1beta production preincubated for 3 hrs followed by nigericin addition measured after 1 hrs by resazurin staining based assay; type: cell-based
[2] = target: T1, NACHT, LRR and PYD domains-containing protein 3; experiment: Inhibition of NLRP3 in human THP-1 cells assessed as reduction in IL-1beta production measured after 1 hrs by ELISA assay; type: cell-based
[3] = target: T1, NACHT, LRR and PYD domains-containing protein 3; experiment: Inhibition of NLRP3 in human THP-1 cells assessed as reduction in IL-1beta production measured after 3 hrs by AlphaLISA assay; type: cell-based
[4] = target: T1, NACHT, LRR and PYD domains-containing protein 3; experiment: Inhibition of NLRP3 in human THP-1 cells assessed as reduction in IL-1beta production; type: cell-based
[5] = target: T1, NACHT, LRR and PYD domains-containing protein 3; experiment: Inhibition of NLRP3 in human PBMC cells assessed as reduction in IL-1beta production preincubated for 30 mins followed by LPS addition measured after 6 hrs; type: cell-based
[6] = target: T2, NACHT, LRR and PYD domains-containing protein 3 (Mus musculus, UniProt Q8R4B8); experiment: Inhibition of NLRP3 in mouse BMDM cells assessed as reduction in IL-1beta production preincubated for 30 mins followed by ATP addition measured after 45 mins by ELISA assay; type: cell-based
[7] = target: T1, NACHT, LRR and PYD domains-containing protein 3; experiment: Inhibition of NLRP3 in human THP-1 cells assessed as reduction in IL-1beta production pre incubated for 3 hrs followed by nigericin addition measured after 1 hrs by resazurin staining based assay; type: cell-based
[8] = Oral bioavailability in Sprague-Dawley rat measured upto 24 hrs by LC-MS/MS analysis; type: ADME, organism-based; conditions: in vivo
[9] = system: THP-1; experiment: Induction of pyroptosis in human THP-1 cells by AlphaLisa assay; type: functional, cell-based
[10] = target: T1, NACHT, LRR and PYD domains-containing protein 3; experiment: Inhibition of NLRP3 in human MDM cells assessed as reduction in IL-1beta production measured after 3 hrs by AlphaLISA assay; type: cell-based
[11] = target: T1, NACHT, LRR and PYD domains-containing protein 3; experiment: Inhibition of NLRP3 in human THP-1 cells assessed as reduction in IL-1beta production measured after 3 hrs; type: cell-based
[12] = target: T2, NACHT, LRR and PYD domains-containing protein 3; experiment: Inhibition of NLRP3 in mouse J774A.1 cells assessed as reduction of IL-1beta production; type: cell-based, J774.A1
[13] = Inhibition of NLRP3 in PBMC cells (unknown origin) assessed as reduction in IL-1beta production measured after 2 hrs by ELISA assay; type: cell-based
[14] = target: T1, NACHT, LRR and PYD domains-containing protein 3; experiment: Inhibition of NLRP3 in LPS induced human Whole blood cell assessed as reduction in IL-1beta production preincubated for 3 hrs followed by nigericin measured after 1 hrs by resazurin staining based assay; type: tissue-based
[15] = target: T1, NACHT, LRR and PYD domains-containing protein 3; experiment: Inhibition of NLRP3 in human PBMC cells assessed as reduction in TNF alpha level preincubated for 30 mins followed by LPS addition measured after 6 hrs; type: cell-based
[16] = system: THP-1; experiment: Induction of pyroptosis in human THP-1 cells; type: functional, cell-based
[17] = target: T1, NACHT, LRR and PYD domains-containing protein 3; experiment: Inhibition of NLR3 in human Whole blood cell assessed as reduction in IL-1beta production preincubated for 0.5 hrs followed by LPS treatement for […] and further addition of ATP measured after 45 mins by ELISA assay; type: tissue-based
[18] = target: T2, NACHT, LRR and PYD domains-containing protein 3; experiment: Inhibition of NLRP3 in mouse BMDM assessed as reduction in IL-1beta production preincubated for 3 hrs followed by ATP measured after 45 mins by ELISA assay; type: cell-based
[19] = target: T1, NACHT, LRR and PYD domains-containing protein 3; experiment: Inhibition of NLRP3 in human THP-1 cells assessed as reduction in caspase 1 level; type: cell-based
[20] = target: T2, NACHT, LRR and PYD domains-containing protein 3; experiment: Inhibition of NLRP3 in LPS induced mouse BMDM cells assessed as reduction in IL-1beta production measured after 30 mins by ELISA assay; type: cell-based
[21] = target: T1, NACHT, LRR and PYD domains-containing protein 3; experiment: Inhibition of NLRP3 in human Whole blood cell assessed as reduction in IL-1beta production incubated for overnight in presence of ATP by ELISA; type: tissue-based
[22] = target: T1, NACHT, LRR and PYD domains-containing protein 3; experiment: Inhibition of NLRP3 in human THP-1 cells assessed as reduction in IL-1beta production measured after 3 hrs by resazurin staining based assay; type: cell-based

T1 sequence (Q96P20 whole entry, the tested form may be a part): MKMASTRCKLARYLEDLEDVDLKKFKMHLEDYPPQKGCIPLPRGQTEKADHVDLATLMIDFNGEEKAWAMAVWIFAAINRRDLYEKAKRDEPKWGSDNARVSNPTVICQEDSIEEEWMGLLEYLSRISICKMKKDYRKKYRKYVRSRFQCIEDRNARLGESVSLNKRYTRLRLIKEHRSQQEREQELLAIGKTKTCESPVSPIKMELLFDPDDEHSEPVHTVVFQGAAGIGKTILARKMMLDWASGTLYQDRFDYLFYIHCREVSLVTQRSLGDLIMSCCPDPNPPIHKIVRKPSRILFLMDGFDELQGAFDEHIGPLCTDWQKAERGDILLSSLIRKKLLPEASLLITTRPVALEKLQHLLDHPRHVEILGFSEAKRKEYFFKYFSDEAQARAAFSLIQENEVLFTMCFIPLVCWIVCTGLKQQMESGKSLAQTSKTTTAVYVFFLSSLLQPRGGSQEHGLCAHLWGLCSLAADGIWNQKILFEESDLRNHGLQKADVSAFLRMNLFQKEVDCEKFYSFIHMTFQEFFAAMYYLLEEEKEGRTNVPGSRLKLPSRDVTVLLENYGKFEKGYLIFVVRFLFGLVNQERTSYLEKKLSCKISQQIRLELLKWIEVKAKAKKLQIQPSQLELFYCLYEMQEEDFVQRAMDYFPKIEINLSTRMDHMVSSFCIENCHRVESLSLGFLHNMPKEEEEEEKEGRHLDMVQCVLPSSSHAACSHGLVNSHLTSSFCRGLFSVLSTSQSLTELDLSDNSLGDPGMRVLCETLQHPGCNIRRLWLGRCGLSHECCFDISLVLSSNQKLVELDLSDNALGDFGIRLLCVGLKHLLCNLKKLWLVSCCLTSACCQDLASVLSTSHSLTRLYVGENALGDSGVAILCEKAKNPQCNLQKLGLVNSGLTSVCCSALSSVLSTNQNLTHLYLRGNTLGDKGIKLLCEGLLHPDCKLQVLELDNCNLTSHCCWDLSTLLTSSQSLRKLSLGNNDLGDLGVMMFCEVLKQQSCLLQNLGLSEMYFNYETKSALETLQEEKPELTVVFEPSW
T2 sequence (Q8R4B8 whole entry, the tested form may be a part): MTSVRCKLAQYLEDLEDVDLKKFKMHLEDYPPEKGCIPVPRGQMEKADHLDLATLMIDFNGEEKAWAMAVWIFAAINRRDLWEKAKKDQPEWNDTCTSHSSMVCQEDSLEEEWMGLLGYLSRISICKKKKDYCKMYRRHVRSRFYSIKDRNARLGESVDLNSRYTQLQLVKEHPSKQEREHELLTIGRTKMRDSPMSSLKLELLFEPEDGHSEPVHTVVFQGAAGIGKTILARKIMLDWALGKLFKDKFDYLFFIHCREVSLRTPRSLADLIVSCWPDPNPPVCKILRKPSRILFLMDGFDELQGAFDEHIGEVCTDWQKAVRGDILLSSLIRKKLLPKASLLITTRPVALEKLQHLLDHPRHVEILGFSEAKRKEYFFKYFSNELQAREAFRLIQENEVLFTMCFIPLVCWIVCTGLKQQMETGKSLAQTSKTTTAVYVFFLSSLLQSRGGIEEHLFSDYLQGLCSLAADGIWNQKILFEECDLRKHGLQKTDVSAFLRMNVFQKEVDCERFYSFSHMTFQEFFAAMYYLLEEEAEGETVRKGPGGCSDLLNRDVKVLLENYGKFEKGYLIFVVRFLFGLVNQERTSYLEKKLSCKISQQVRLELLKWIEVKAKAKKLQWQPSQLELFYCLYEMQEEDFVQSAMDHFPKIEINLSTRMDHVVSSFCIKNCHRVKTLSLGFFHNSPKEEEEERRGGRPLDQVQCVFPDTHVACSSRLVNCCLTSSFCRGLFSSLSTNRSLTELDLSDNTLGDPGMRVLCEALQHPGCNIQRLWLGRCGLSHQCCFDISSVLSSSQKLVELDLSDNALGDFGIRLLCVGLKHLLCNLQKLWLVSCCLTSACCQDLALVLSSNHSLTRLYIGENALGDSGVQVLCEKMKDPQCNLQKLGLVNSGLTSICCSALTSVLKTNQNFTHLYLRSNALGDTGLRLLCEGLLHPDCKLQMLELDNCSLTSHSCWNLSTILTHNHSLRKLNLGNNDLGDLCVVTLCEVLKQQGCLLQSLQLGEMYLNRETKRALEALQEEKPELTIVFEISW

IC50 [1]: ≤ 100 nM
SMILES: O=S1(=O)c2nnc([nH]2)Nc2c(ccc3c2CCC3)-c2ccnc(c2)OCCCN2CCC3(CC1C3)C2

IC50 [2]: 3660 nM
SMILES: CC(C)c1nn(C(C)C(=O)Nc2ncc(F)cn2)c(=O)c2ccc(Br)cc12 (centres undefined)

IC50 [3]: ≤ 100 nM
SMILES: CC(C)c1cc(F)cc2c1CC(=O)NS(=O)(=O)c1ccn(n1)C(C)(C)COc1cc-2ccn1

IC50 [4]: ≤ 250 nM
SMILES: Cc1nc(C(C)C)c(NC(=O)NS(=O)(=O)c2cc(C(C)(C)O)co2)n1-c1ccncc1

EC50 [5]: > 15000 nM
SMILES: CC(C)c1nn(CC(=O)Nc2ccc3nncn3n2)c(=O)cc1Nc1ccccc1

IC50 [6]: < 100 nM
SMILES: CC(C)c1cc(F)cc(C(C)C)c1NC(=O)NS(=O)(=O)c1cc2c(o1)CCCC2(C)O (centres undefined)

IC50 [7]: ≤ 1000 nM
bioavailability [8]: 76.7%
SMILES: CCN1CCC(S(=O)(=O)NC(=O)Nc2c3c(cc4c2CCC4)CCC3)CC1 [SELNOFLAST]

IC50 [9]: 0.6 nM
SMILES: Cc1cc(Cl)cc(O)c1-c1ccc2oc(N[C@H]3CCCN4CCC[C@H]34)nc2n1

IC50 [10]: < 1000 nM
SMILES: CC(C)(O)c1ccc2c(c1)[S+]([O-])(NC(=O)Nc1c3c(cc4c1CCC4)CCC3)=NC2=O (centres undefined)

IC50 [11]: < 100 nM
SMILES: CCc1oc(C(C)C)cc1NC(=O)NS(=O)(=O)C(c1cnn(C)c1)C1CCCN(C)C1 (centres undefined)

IC50 [12]: 1540 nM
SMILES: Cc1ccc(S(=O)(=O)/C=C/C#N)cc1

IC50 [13]: < 100 nM
SMILES: Cn1cc(N(C[C@@H]2CCCO2)CS(=O)(=O)NC(=O)Nc2c3c(cc4c2CC4)CCC3)cn1

IC50 [12]: 910 nM
SMILES: O=C(/C=C/S(=O)(=O)c1ccccc1Cl)NCCc1ccccc1

IC50 [2]: > 50000 nM
SMILES: CC(C)c1nn(CC(=O)Nc2ncncc2F)c(=O)c2cc(C(F)(F)F)ccc12

EC50 [5]: 90 nM
SMILES: CC(C)c1nn(CC(=O)Nc2ccc3nncn3n2)c(=O)cc1N1CC2CC2C1 (centres undefined)

IC50 [14]: < 1000 nM
SMILES: COc1cc(-c2ccc3c(c2NC(=O)NS(=O)(=O)c2cn(C(C)C)c(=O)cn2)CCC3)ccn1

IC50 [15]: 4990 nM
SMILES: CC(C)c1nn(CC(=O)Nc2ccc3nncn3c2)c(=O)c2sc(C3CC3)nc12

IC50 [7]: ≤ 250 nM
SMILES: CN1CCC(Oc2cc(-c3ccc4c(c3NC(=O)NS(=O)(=O)C3CC3)CCC4)ccn2)CC1

IC50 [11]: ≤ 250 nM
SMILES: CS(=O)(=O)NC(=O)Nc1c(-c2ccnc(OC3CCN(Cc4ccccc4)CC3)c2)ccc2c1CCC2

EC50 [16]: > 1000 nM
SMILES: CN1CCC[C@@H](Nc2nnc(-c3sccc3O)c3c2ncn3C)C1

IC50 [15]: 7040 nM
IC50 [5]: 24 nM
SMILES: CCNc1cc2c(=O)n(CC(=O)Nc3ccc4nncn4c3)nc(C(C)C)n2n1

IC50 [4]: ≤ 250 nM
SMILES: Cc1cc2c(c(NC(=O)NS(=O)(=O)c3cc(C(C)(C)O)co3)c1-c1ccnc(OC3CCN(C)CC3)c1)CCC2

IC50 [7]: < 1000 nM
SMILES: COc1cc(C)c(S(=O)(=O)NC(=O)Nc2c3c(cc4c2CCC4)CCC3)cn1

IC50 [17]: < 1000 nM
SMILES: O=C(Nc1c2c(cc3c1CCC3)CCC2)NS(=O)(=O)c1cc2c(o1)C1CCN(CC1)C2

EC50 [5]: 10 nM
SMILES: COC(=O)C12CC(NC(=O)Cn3nc(C(C)C)c(OCC(C)C)cc3=O)(C1)C2

IC50 [18]: < 100 nM
SMILES: C[C@@]1(O)CCCc2oc(S(=O)(=O)NC(=O)Nc3c4c(cc5c3CCC5)CCC4)cc21

IC50 [19]: 500 nM
SMILES: C=CCN1C(=O)/C(=C2/C(=O)Nc3ccccc32)SC1=S

IC50 [20]: 1400 nM
SMILES: CCC(CC)CN1C(=O)/C(=C/c2ccccc2S(C)(=O)=O)SC1=S

IC50 [15]: 11500 nM
SMILES: CC(C)c1nc2c(C(C)C)nn(CC(=O)Nc3ccc4nncn4c3)c(=O)c2s1

IC50 [21]: < 1000 nM
SMILES: O=C(Nc1c(C2CC2)ccc2c1CCC2)NS(=O)(=O)c1cc2c(o1)C1CCN(CC1)C2

IC50 [2]: 1140 nM
SMILES: CC(C)c1nn(C2(C(=O)Nc3ncccn3)CC2)c(=O)cc1-c1cc(F)cc(F)c1

IC50 [22]: ≤ 250 nM
SMILES: O=C(Nc1c2c(cc3c1CCO3)CCC2)NS(=O)(=O)c1ccn(C2CC2)n1
